Data on 13 compounds can be found in patent publication US20090062255A1, “TUMOR-TARGETING EVALUATION METHODOLOGY AND COMPOUNDS RELATED THERETO” (THALLION PHARMACEUTICALS INC., priority 2007, published 2009).

One series concerns the target T1, human 5-LO (Homo sapiens, UniProt P09917).
T1 construct: Human peripheral blood […] (PMNs) were isolated through a Ficoll-Paque density gradient; endogenous in cells; host or cells: human peripheral blood mononuclear cells (PBML/PMNs)
T1 sequence (P09917 1-674): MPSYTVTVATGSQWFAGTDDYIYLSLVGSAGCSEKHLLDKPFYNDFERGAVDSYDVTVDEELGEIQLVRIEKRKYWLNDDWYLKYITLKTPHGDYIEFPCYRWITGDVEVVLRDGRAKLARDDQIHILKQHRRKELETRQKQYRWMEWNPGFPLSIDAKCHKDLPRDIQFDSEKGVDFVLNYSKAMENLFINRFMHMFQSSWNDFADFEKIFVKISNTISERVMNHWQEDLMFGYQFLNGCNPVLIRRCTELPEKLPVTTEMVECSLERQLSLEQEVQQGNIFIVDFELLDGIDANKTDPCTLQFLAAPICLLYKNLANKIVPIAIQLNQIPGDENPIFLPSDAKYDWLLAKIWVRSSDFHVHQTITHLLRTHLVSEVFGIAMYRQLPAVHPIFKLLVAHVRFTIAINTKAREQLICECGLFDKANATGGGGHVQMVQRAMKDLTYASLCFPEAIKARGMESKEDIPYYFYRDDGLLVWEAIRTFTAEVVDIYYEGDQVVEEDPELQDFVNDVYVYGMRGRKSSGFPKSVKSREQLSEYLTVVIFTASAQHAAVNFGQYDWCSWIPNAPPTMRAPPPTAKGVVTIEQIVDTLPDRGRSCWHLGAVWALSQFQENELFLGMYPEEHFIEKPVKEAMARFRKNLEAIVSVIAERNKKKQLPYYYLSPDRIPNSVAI
As to the kind of experiment: 5-LO inhibition assay (EIA quantitation of LTB4). The series is classed as biochemical. As to conditions: 4 μM compound, 1% DMSO; read-out: Percentage of inhibition or binding activity, 5-LO (4 μM). Here is the method: 5-Lipoxygenase (5-LO) catalyzes the oxidative metabolism of arachidonic acid to 5-hydroxyeicosatetraenoic acid (5-HETE), the initial reaction leading to formation of leukotrienes.
Human peripheral blood […] (PMNs) were isolated through a Ficoll-Paque density gradient. PMNs were stimulated by addition A23187 (30 μM final concentration). […] Following incubation, samples were neutralized with NaOH and centrifuged. Leukotriene B4 content was measured in the supernatant using an Enzyme Immunosorbant Assay (EIA) assay. The experiment was performed in triplicate.
The procedures used are based on the respective references mentioned above and the conditions are summarized in Tables 16 (enzyme assays) and 17 (radioligand receptor assays).
(§1) Binding Assays were done at constant concentration of the compound, in 1% DMSO as vehicle, and are specified below each enzyme/receptor type in Table 18. The results are expressed in Table 18 as percentage inhibition. Significance was obtained when a result was ≧50% binding or inhibition (underlined).

For series [1], the target named is T2, peripheral benzodiazepine receptor (PBR) (Rattus norvegicus, UniProt P16257).
T2 construct: CBR and PBR were obtained from rat brain and heart membrane-fractions, respectively; from tissue; host or cells: Wistar rat heart membranes
Briefly: PBR radioligand binding assay ([3H]PK-11195, rat heart). Particulars: for inhibition at 1 µM: 1 μM compound, 1% DMSO, read-out: Percentage of inhibition or binding activity, PBR (1 μM).
Source text: The procedures used were based on known assays: ACAT (from rat; Ref: Largis et al (1989), J. Lipid. Res., vol 30, 681-689), COX-2 (human; Ref: Riendeau et al (1997), Can. J. Physiol. Pharmacol., vol 75, 1088-1095 and Warner et al (1999), Pro. Natl. Acad. Sci. USA, vol 96, 7563-7568), 5-LO (human; Ref: Carter et al (1991), J. Pharmacol. Exp. Ther., vol 256, no 3, 929-937, and Safayhi et al (2000), Planta Medica, vol 66, 110-113), PBR (from rat; Le Fur et al (1983), Life Sci. USA, vol 33, 449-457), CysLT1 (human; Martin et al (2001), Biochem. Pharmacol., vol 62, no 9, 1193-1200) and CBR (from rat; Damm et al (1978), Res. Comm. Chem. Pathol. Pharmacol., vol 22, 597-600 and Speth et al (1979), Life Sci., vol 24, 351-357).
Binding assays were done for each of Compounds 1-12 and 46 using ACAT, COX-2, 5-LO, PBR and CysLT1 enzymes. The procedures used are based on the respective references mentioned above and the conditions are summarized in Tables 16 (enzyme assays) and 17 (radioligand receptor assays).
as §1
As Compound 1 was isolated from structural prediction through genetic analysis and activity identified through in vitro cytotoxic assays, its molecular target(s) were unknown at the time of discovery. Based on the structural characteristics of ECO-4601, we first investigated its binding affinity to the central (GABAA; CBR;) and peripheral (PBR) benzodiazepine receptors. The effect of ECO-4601 on CBR (GABAA) and PBR was initially evaluated in a radioligand-binding assay at MDS Pharma Services (Taipei, Tawain). CBR and PBR were obtained from rat brain and heart membrane-fractions, respectively. Displacement assays were done in the presence of 1 nM [^3H]-Flunitrazepam (CBR; GABAA) or 0.3 nM of [^3H]-PK11195 (PBR). ECO-4601 was tested at 0.01, 0.1, 0.5, 1, 5 and 10 μM. Non-specific binding was estimated in the presence of 10 μM diazepam (CBR) or 100 μM dipyrimadole (PBR) and assays were performed according to previous described methods (Damm et al Res Commun Chem Pathol Pharmacol 22, pp 597-600; Le Fur et al (1983) Life Science 33, pp 449-57). […] This contrats with current specific PBR ligands, which bind the PBR with nanomolar affinity yet their effect on cell proliferation, is in the micromolar range.

The test system of series [2] is HT-29 (colorectal carcinoma). Briefly: In vitro cytotoxic activity (GI50, propidium iodide), HT-29. The series is classed as cell-based. As to conditions: for GI50: Homo sapiens, HT-29, 96 h, method (1), 96 hours. On the procedure:
(§2) Procedures used for each series of tests are described below.
(§3) Compounds were dissolved at 10 mM in DMSO. […] The following day, propidium iodide was added to one of the two plates and fluorescence measured (Tz). […] Each compound was tested at each concentration and in triplicates. The equivalent cell number was determined after adding propidium iodide by measuring the signal by fluorescence (C for control).

For series [3] the following is noted: for MTD: mouse, in vivo.
Series [4] concerns PC-3 (prostate adenocarcinoma). Briefly: In vitro cytotoxic activity (GI50, propidium iodide), PC-3. Particulars: Homo sapiens, 96 h, method (1). The series is classed as cell-based, human. Here is the method:
as §2, §3

In a further series the test system is SF268 (CNS). As to the kind of experiment: In vitro cytotoxic activity (GI50, propidium iodide), SF-268. The series is classed as cell-based. Particulars: Homo sapiens, SF-268, 96 h, method (1), 96 hours. On the procedure:
as §2, §3

For series [5], the system named is MDA-MB-231 (mammary gland adenocarcinoma). As to the kind of experiment: In vitro cytotoxic activity (GI50, propidium iodide), MDA-MB-231. Particulars: Homo sapiens, MDA-MB-231, 96 h, method (1), 96 hours. The series is classed as cell-based, human. Here is the method: as §2, §3

Values joined by “and” are separate entries in the source; they are usually repeats but may differ in a detail not shown here. Equal entries are not always repeated. Where two headings read alike, the source gives them in different places.

Consider `COc1cccc2c1Nc1c(O)cc(O)cc1N(C/C=C(\C)CC/C=C(\C)CCC=C(C)C)C2=O` [Compound 4, 10-farnesyl-6,8-dihydroxy-4-methoxy-5,10-dihydro-dibenzo[b,e][1,4]diazepin-11-one], for which, on human 5-LO, the inhibition at 4 µM stood at 98%. Moreover, in series [1], the inhibition at 1 µM came to 92%.
Consider `CC(C)=CCC/C(C)=C/CC/C(C)=C/CN1C(=O)c2cccc(O)c2N(C)c2c(O)cc(O)cc21` [Compound 2, 10-farnesyl-4,6,8-trihydroxy-5-methyl-5,10-dihydro-dibenzo[b,e][1,4]diazepin-11-one], for which the inhibition at 4 µM on human 5-LO stood at 93%. Moreover, in series [1], the inhibition at 1 µM is 65%. The “increase of cytotoxic activity compared to parent Compound 1” value in series [2] (HT-29 cell line) was “fifty fold increase”. In addition, the weight losses result in series [3] (for several days post-injection) was “about 7%”. In series [3] (ip), the MTD is given as no less than 50 mg/kg.
For the compound `CC(C)CCCC(C)CCCC(C)CCN1C(=O)c2cccc(O)c2Nc2c(O)cc(O)cc21` (stereo not drawn) [Compound 46, 10-(3,7,11-trimethyldodecyl)-4,6,8-trihydroxy-5,10-dihydro-dibenzo[b,e][1,4]diazepin-11-one], the inhibition at 4 µM on human 5-LO was 65%. In addition, the inhibition at 1 µM in series [1] was -1%. Moreover, in series [4], the GI50 came to 0.9 µM.
As to `COc1cc(O)cc2c1Nc1c(O)cccc1C(=O)N2C/C=C(\C)CC/C=C(\C)CCC=C(C)C` [Compound 5, 10-farnesyl-4,8-dihydroxy-6-methoxy-5,10-dihydro-dibenzo[b,e][1,4]diazepin-11-one], the inhibition at 4 µM at human 5-LO amounted to 98%. Further, in series [1], the inhibition at 1 µM was 68%.
The corresponding values for `CC(=O)Oc1cc(OC(C)=O)c2c(c1)N(CC=C(C)CCC=C(C)CCC=C(C)C)C(=O)c1cccc(OC(C)=O)c1N2` [Compound 12, 4,6,8-triacetoxy-10-farnesyl-5,10-dihydro-dibenzo[b,e][1,4]diazepin-11-one] are 86% and 39%.
As for `CC(=O)Oc1cccc2c1Nc1c(OC(C)=O)cc(O)cc1N(CC=C(C)CCC=C(C)CCC=C(C)C)C2=O` [Compound 10, 4,6-diacetoxy-10-farnesyl-8-hydroxy-5,10-dihydro-dibenzo[b,e][1,4]diazepin-11-one], the inhibition at 4 µM on human 5-LO worked out at 97%. Besides, the inhibition at 1 µM in series [1] stood at 86%. For the same compound, the GI50 in series [2] turned out to be 13 µM; in the series with SF268 (CNS), 2.02 µM; in series [4], 1.35 µM; in series [5] it was 1.55 µM.
Consider `CC(=O)Oc1cc(O)c2c(c1)N(CC=C(C)CCC=C(C)CCC=C(C)C)C(=O)c1cccc(OC(C)=O)c1N2` [Compound 11, 4,8-diacetoxy-10-farnesyl-6-hydroxy-5,10-dihydro-dibenzo[b,e][1,4]diazepin-11-one], for which the inhibition at 4 µM at human 5-LO came out at 97%. Moreover, in series [1], the inhibition at 1 µM is 39%. In addition, the GI50 in series [2] came out at 16 µM; in the series on SF268 (CNS), 5.79 µM; in series [4] it was 5.35 µM; in series [5] it was 7.72 µM.
With `COc1cc(OC)c2c(c1)N(C/C=C(\C)CC/C=C(\C)CCC=C(C)C)C(=O)c1cccc(O)c1N2` [Compound 6, 10-farnesyl-4-hydroxy-6,8-dimethoxy-5,10-dihydro-dibenzo[b,e][1,4]diazepin-11-one], at human 5-LO, the inhibition at 4 µM came to 71%. Further, the inhibition at 1 µM in series [1] worked out at 75%.
With `CC(=O)Oc1cc(OC(C)=O)c2c(c1)N(CC=C(C)CCC=C(C)CCC=C(C)C)C(=O)c1cccc(O)c1N2` [Compound 9, 6,8-diacetoxy-10-farnesyl-4-hydroxy-5,10-dihydro-dibenzo[b,e][1,4]diazepin-11-one], the inhibition at 4 µM on human 5-LO worked out at 96%. Moreover, in series [1], the inhibition at 1 µM came out at 32%. In addition, the GI50 came to 12.6 µM in series [2], 1.88 µM in the series with SF268 (CNS), 1.44 µM in series [4] and 2.48 µM in series [5].
On to `COc1cc(OC)c2c(c1)N(CC=C(C)CCC=C(C)CCC=C(C)C)C(=O)c1cccc(OC)c1N2` [Compound 8, 10-farnesyl-4,6,8-trimethoxy-5,10-dihydro-dibenzo[b,e][1,4]diazepin-11-one], for which the inhibition at 4 µM at human 5-LO was -13%. In series [1], the inhibition at 1 µM was found to be 55%.
As to `CC(C)=CCC/C(C)=C/CC/C(C)=C/CN1C(=O)c2cccc(O)c2Nc2c(O)cc(O)cc21` [Compound 1, 10-farnesyl-4,6,8-trihydroxy-5,10-dihydrodibenzo[b,e][1,4]diazepin-11-one], the inhibition at 4 µM on human 5-LO is 99%. In series [1], the inhibition at 1 µM worked out at 80%. In addition, the IC50 in series [1] (multiple dilutions, 0.3 nM [3H]-PK11195, rat heart, read-out: PBR IC50 (binding affinity)) was 291 nM and ~300 nM. The Ki in series [1] (multiple dilutions, read-out: PBR inhibition constant (Ki)) was 257 nM. The same compound yielded an MTD in series [3] (iv) of 150 mg/kg.
With `COc1cccc2c1Nc1c(OC)cc(O)cc1N(CC=C(C)CCC=C(C)CCC=C(C)C)C2=O` [Compound 7, 10-farnesyl-8-hydroxy-4,6-dimethoxy-5,10-dihydro-dibenzo[b,e][1,4]diazepin-11-one], on human 5-LO, the inhibition at 4 µM was 63%. Besides, the inhibition at 1 µM in series [1] is 65%.
The corresponding values for `CC(C)=CCC/C(C)=C/CC/C(C)=C/CN1C(=O)c2cccc(O)c2N(Cc2ccccc2)c2c(O)cc(O)cc21` [Compound 3, 5-benzyl-10-farnesyl-4,6,8-trihydroxy-5,10-dihydro-dibenzo[b,e][1,4]diazepin-11-one] are 72% and 11%.
